Results on 20 compounds are retold here after ChEMBL document CHEMBL1208784, “Refinement of the pharmacophore of 3,4-dihydroquinazoline-2(1H)-thiones for their anti-melanogenesis activity” (Bioorg Med Chem Lett, 2010).

For test [1], the system named is B16. Kind of test: Antimelanogenic activity in mouse B16 cells assessed as inhibition of alpha-MSH-induced melanogenesis at 10 uM. Format: functional.
For test [2], the system named is B16. Kind of test: Antimelanogenic activity in mouse B16 cells assessed as inhibition of alpha-MSH-induced melanogenesis. Format: functional, cell-based.
Test [3] deals with B16. Kind of test: Antimelanogenic activity in mouse B16 cells assessed as inhibition of alpha-MSH-induced melanogenesis at 100 uM. The class given is functional.
A further test concerns the target T1, Tyrosinase (Mus musculus, UniProt P11344).
T1 sequence (P11344 whole entry): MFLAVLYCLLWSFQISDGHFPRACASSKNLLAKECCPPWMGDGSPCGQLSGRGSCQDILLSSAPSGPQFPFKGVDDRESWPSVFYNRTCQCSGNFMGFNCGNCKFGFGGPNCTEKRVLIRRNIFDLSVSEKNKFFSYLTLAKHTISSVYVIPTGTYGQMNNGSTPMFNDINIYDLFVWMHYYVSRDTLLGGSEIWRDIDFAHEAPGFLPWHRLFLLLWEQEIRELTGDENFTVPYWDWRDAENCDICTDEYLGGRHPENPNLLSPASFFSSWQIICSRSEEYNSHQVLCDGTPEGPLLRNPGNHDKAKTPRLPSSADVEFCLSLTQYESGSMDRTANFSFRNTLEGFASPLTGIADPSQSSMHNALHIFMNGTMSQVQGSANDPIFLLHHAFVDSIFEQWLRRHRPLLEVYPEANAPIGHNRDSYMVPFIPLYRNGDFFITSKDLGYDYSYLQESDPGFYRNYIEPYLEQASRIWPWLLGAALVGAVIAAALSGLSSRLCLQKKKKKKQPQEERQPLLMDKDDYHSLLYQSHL
Nature of the test: Inhibition of tyrosinase in alpha-MSH-induced mouse B16 cells. Format: cell-based.

In general, inhibition refers to the relative decrease from the control value, in per cent. For orientation: IC50 means the point on the concentration scale where inhibition reaches its midpoint. As for `Cc1ccc2c(c1)CN(CCC(C)C)C(=S)N2`, the inhibition at 10 µM in the test with B16 [1] was greater than 100%. In addition, the IC50 in the test with B16 [2] was found to be 3 µM.

Take `CCCCCCN1Cc2cc(C)ccc2NC1=S`: the inhibition at 10 µM in the test with B16 [1] was greater than 100%. Further, the IC50 in the test on B16 [2] was found to be 1.2 µM.

On to `CCCCCCCN1Cc2cc(C)ccc2NC1=S`, for which the inhibition at 10 µM in the test on B16 [1] is greater than 100%. Also, the IC50 with B16 [2] stood at 1.4 µM.

On to `Cc1ccc2c(c1)CN(CC1CCCCC1)C(=S)N2`, for which, in the test on B16 [1], the inhibition at 10 µM was greater than 100%. For the same compound, the IC50 in the test with B16 [2] came to 1.6 µM.

Turning to `S=C1Nc2ccc(Cl)cc2CN1CC1CCCCC1`, in the test with B16 [1], the inhibition at 10 µM is greater than 100%. Moreover, the IC50 with B16 [2] is 1.2 µM.

Take `S=C1NCc2ccccc2N1`: in the test on B16 [1], the inhibition at 10 µM was determined as 36%. Moreover, in the test on B16 [2], the IC50 was found to be 15.8 µM.

Take `Cc1ccc2c(c1)CN(C(C)C)C(=S)N2C`: the inhibition at 10 µM with B16 [1] turned out to be 10%. In addition, in the test with B16 [2], the IC50 was determined as 19 µM.

For `Cc1ccc2c(c1)CN(CC(C)C)C(=S)N2C`, in the test with B16 [1], the inhibition at 10 µM was 18%. Also, the IC50 in the test with B16 [2] is 17.8 µM.

As to `Cc1ccc2c(c1)CN(C(C)C)C(=O)N2`, the inhibition at 10 µM in the test with B16 [1] amounted to 13%. For the same compound, the IC50 with B16 [2] was greater than 10 µM.

`Cc1ccc2c(c1)CN(CC(C)C)C(=O)N2`: the inhibition at 10 µM with B16 [1] was found to be 11%. Also, in the test on B16 [2], the IC50 was greater than 10 µM.

On to `Cc1ccc2c(c1)CN(CCC(C)C)C(=O)N2`, for which the inhibition at 10 µM in the test with B16 [1] was found to be 15%. In addition, the IC50 in the test with B16 [2] is greater than 10 µM.

For the compound `CCCCCCN1Cc2cc(C)ccc2NC1=O`, the inhibition at 10 µM in the test on B16 [1] was 12%. Besides, the IC50 in the test with B16 [2] was greater than 10 µM.

As for `CCCCCCCN1Cc2cc(C)ccc2NC1=O`, in the test on B16 [1], the inhibition at 10 µM came out at 19%. Also, in the test on B16 [2], the IC50 is greater than 10 µM.

As to `Cc1ccc2c(c1)CN(CC1CCCCC1)C(=O)N2`, the inhibition at 10 µM with B16 [1] amounted to 18%. Further, in the test on B16 [2], the IC50 was greater than 10 µM.

Regarding `O=C1Nc2ccc(Cl)cc2CN1CC1CCCCC1`, the inhibition at 10 µM with B16 [1] is 10%. Moreover, the IC50 in the test on B16 [2] is greater than 10 µM.

For `O=C1NCc2ccccc2N1`, the inhibition at 10 µM in the test with B16 [1] was found to be 11%. Moreover, in the test on B16 [2], the IC50 is greater than 10 µM.

With `Cc1ccc2c(c1)CN(C(C)C)C(=S)N2`, the inhibition at 10 µM in the test on B16 [1] is greater than 100%. The IC50 in the test on B16 [2] was 1.9 µM.

For the compound `Cc1ccc2c(c1)CN(CC(C)C)C(=S)N2`, the inhibition at 10 µM in the test with B16 [1] is greater than 100%. Besides, the half-inhibitory concentration (IC50) in the test on B16 [2] worked out at 1.9 µM.

For the compound `NC(=O)Nc1ccccc1`, the inhibition at 100 µM in the test on B16 [3] was determined as 0%.

`NC(=S)Nc1ccccc1` [PHENYLTHIOUREA]: the IC50 against Tyrosinase came out at 1800 nM.
